Results on 3 compounds are retold here after article PMC6509186, “Nontypeable Haemophilus influenzae Has Evolved Preferential Use of N-Acetylneuraminic Acid as a Host Adaptation” (mBio, 2019).

For the test, the target named is T1, CMP-Neu5Ac synthetase (SiaB) (Haemophilus influenzae, UniProt Q57140).
T1 construct: gene neuA; full-length siaB in pET51-Ek/LIC, N-terminal 6xHis tag (so in the source) kept; expressed in E. coli, Talon purified; 24,800 Da; amine-coupled to CM5 chip
The experiment in a line: surface plasmon resonance, immobilised SiaB. The class given is binding. (Surface plasmon resonance follows binding to a sensor surface in real time, without labels.)

[1] abbreviates: 20 mM MgCl2, 0.2 M MOPS, pH 8.1, 37°C, enzyme amine-coupled to CM5 chip.

Where two headings read alike, the source gives them in different places.

Broadly, the Kd is the constant that tells how readily two partners part at equilibrium. A high value points to weaker binding. As for `Nc1ccn([C@@H]2O[C@H](COP(=O)(O)OP(=O)(O)OP(=O)(O)O)[C@@H](O)[C@H]2O)c(=O)n1` [CTP], the equilibrium dissociation constant (Kd) was > 200000 nM.

`CC(=O)N[C@H]1[C@H]([C@H](O)[C@H](O)CO)OC(O)(C(=O)O)C[C@@H]1O` (stereo partly drawn) [Neu5Ac]: binding under setting [1] was characterised by a dissociation constant (Kd) of 1.2 nM.

Under setting [1], `O=C(CO)N[C@H]1[C@H]([C@H](O)[C@H](O)CO)OC(O)(C(=O)O)C[C@@H]1O` (stereo partly drawn) [Neu5Gc] displayed a Kd of 1000 nM.
